Experimental data: patent US11541029B2, “High penetration compositions and their applications” (Techfields Pharma Co., Ltd., priority 2008, dated 2023)

Test system: SLAC/MRL/LPR mice
Assay: Lupus in MRL/LPR mice treated from 8 weeks old, 30 mg/kg (10% aq.) on back skin twice per day
Type: in vivo
Description: . Progression of lupus was monitored once a week by measurement of hematuria, body weight and survival rate. The experiments were carried out in two groups of mice. One group of mice were 8 weeks old and had not shown SLE characteristics (Table 26a). The other group of mice were 16 weeks old, and had shown SLE characteristics (Table 26b).

SMILES: CCN(CC)CCOC(=O)c1ccccc1OC(C)=O.Cl [P-1, diethylaminoethyl acetylsalicylate.HCl salt]
- Body Weight (week 8): 30.5 ± 2.6 g
- Hematuria (0-4) (week 8): 0
- Survival Rate (week 8): 10/10
- Body Weight (week 9): 33.5 ± 2.1 g
- Hematuria (0-4) (week 9): 0
- Survival Rate (week 9): 10/10
- Body Weight (week 10): 36.2 ± 2.7 g
- Hematuria (0-4) (week 10): 0
- Survival Rate (week 10): 10/10
- Body Weight (week 11): 39.9 ± 2.1 g
- Hematuria (0-4) (week 11): 0
- Survival Rate (week 11): 10/10
- Body Weight (week 12): 42.7 ± 2.3 g
- Hematuria (0-4) (week 12): 0
- Survival Rate (week 12): 10/10
- Body Weight (week 13): 44.7 ± 2.4 g
- Hematuria (0-4) (week 13): 0
- Survival Rate (week 13): 10/10
- Body Weight (week 14): 47.1 ± 1.8 g
- Hematuria (0-4) (week 14): 0
- Survival Rate (week 14): 10/10
- Body Weight (week 15): 48.9 ± 2.6 g
- Hematuria (0-4) (week 15): 0
- Survival Rate (week 15): 10/10
- Body Weight (week 16): 49.6 ± 2.1 g
- Hematuria (0-4) (week 16): 0
- Survival Rate (week 16): 10/10
- Body Weight (week 17): 50.2 ± 2.5 g
- Hematuria (0-4) (week 17): 0
- Survival Rate (week 17): 10/10
- Body Weight (week 18): 50.6 ± 2.4 g
- Hematuria (0-4) (week 18): 0
- Survival Rate (week 18): 10/10
- Body Weight (week 19): 50.9 ± 2.3 g
- Hematuria (0-4) (week 19): 0
- Survival Rate (week 19): 10/10
- Body Weight (week 20): 51.1 ± 2.0 g
- Hematuria (0-4) (week 20): 0
- Survival Rate (week 20): 10/10
- Body Weight (week 21): 50.9 ± 2.3 g
- Hematuria (0-4) (week 21): 0
- Survival Rate (week 21): 10/10
- Body Weight (week 22): 50.4 ± 2.2 g
- Hematuria (0-4) (week 22): 0
- Survival Rate (week 22): 10/10
- Body Weight (week 23): 50.9 ± 2.1 g
- Hematuria (0-4) (week 23): 0
- Survival Rate (week 23): 10/10
- Body Weight (week 24): 51.2 ± 2.5 g
- Hematuria (0-4) (week 24): 0
- Survival Rate (week 24): 10/10
- Body Weight (week 25): 50.8 ± 2.2 g
- Hematuria (0-4) (week 25): 0
- Survival Rate (week 25): 10/10
- Body Weight (week 26): 50.7 ± 2.6 g
- Hematuria (0-4) (week 26): 0
- Survival Rate (week 26): 10/10
- Body Weight (week 27): 50.3 ± 2.1 g
- Hematuria (0-4) (week 27): 0
- Survival Rate (week 27): 10/10
- Body Weight (week 28): 50.6 ± 2.0 g
- Hematuria (0-4) (week 28): 0
- Survival Rate (week 28): 10/10
- Body Weight (week 29): 50.1 ± 2.0 g
- Hematuria (0-4) (week 29): 0
- Survival Rate (week 29): 10/10
- Body Weight (week 30): 49.8 ± 2.1 g
- Hematuria (0-4) (week 30): 0
- Survival Rate (week 30): 10/10
- Body Weight (week 31): 50.4 ± 1.9 g
- Hematuria (0-4) (week 31): 0
- Survival Rate (week 31): 10/10
- Body Weight (week 32): 50.8 ± 2.0 g
- Hematuria (0-4) (week 32): 0
- Survival Rate (week 32): 10/10
- Body Weight (week 33): 50.6 ± 2.1 g
- Hematuria (0-4) (week 33): 0
- Survival Rate (week 33): 10/10
- Body Weight (week 34): 50.8 ± 2.3 g
- Hematuria (0-4) (week 34): 0
- Survival Rate (week 34): 10/10
- Body Weight (week 35): 50.3 ± 2.4 g
- Hematuria (0-4) (week 35): 0
- Survival Rate (week 35): 10/10
- Body Weight (week 36): 50.7 ± 2.3 g
- Hematuria (0-4) (week 36): 0
- Survival Rate (week 36): 10/10
- Body Weight (week 37): 50.9 ± 2.0 g
- Hematuria (0-4) (week 37): 0
- Survival Rate (week 37): 10/10
- Body Weight (week 38): 51.1 ± 2.6 g
- Hematuria (0-4) (week 38): 0
- Survival Rate (week 38): 10/10
- Body Weight (week 39): 50.6 ± 2.2 g
- Hematuria (0-4) (week 39): 0
- Survival Rate (week 39): 10/10
- Body Weight (week 40): 50.7 ± 2.0 g
- Hematuria (0-4) (week 40): 0
- Survival Rate (week 40): 10/10
- Body Weight (week 41): 51.2 ± 2.1 g
- Hematuria (0-4) (week 41): 0
- Survival Rate (week 41): 10/10
- Body Weight (week 42): 51.1 ± 2.6 g
- Hematuria (0-4) (week 42): 0
- Survival Rate (week 42): 10/10
- Body Weight (week 43): 50.7 ± 2.2 g
- Hematuria (0-4) (week 43): 0
- Survival Rate (week 43): 10/10
- Body Weight (week 44): 50.3 ± 2.6 g
- Hematuria (0-4) (week 44): 0
- Survival Rate (week 44): 10/10
- Body Weight (week 45): 50.7 ± 2.0 g
- Hematuria (0-4) (week 45): 0
- Survival Rate (week 45): 10/10
- Body Weight (week 46): 50.6 ± 2.3 g
- Hematuria (0-4) (week 46): 0
- Survival Rate (week 46): 10/10
- Body Weight (week 47): 50.1 ± 2.0 g
- Hematuria (0-4) (week 47): 0
- Survival Rate (week 47): 10/10
- Body Weight (week 48): 50.3 ± 2.5 g
- Hematuria (0-4) (week 48): 0
- Survival Rate (week 48): 10/10
- Body Weight (week 49): 50.7 ± 2.4 g
- Hematuria (0-4) (week 49): 0
- Survival Rate (week 49): 10/10
- Body Weight (week 50): 51.2 ± 2.1 g
- Hematuria (0-4) (week 50): 0
- Survival Rate (week 50): 10/10
